From ChEMBL document CHEMBL5233264, “Targeting MYC: From understanding its biology to drug discovery” (Eur J Med Chem, 2021)
Each block holds one molecule with its values, some of them ahead of it.

How the values were obtained:
Quadruplex DNA [1] = assay: Binding affinity to MYC G4-quadruplex DNA (unknown origin) assessed as dissociation constant; type: nucleic-acid assay
[2] = In vivo inhibition of BRD4 in human MV4-11 cells xenografted in mouse tumor model; type: functional, organism-based
HL-60 = assay: Cytotoxicity against human HL-60 cells measured after 72 hrs by MTT assay; type: functional, cell-based; conditions: HL-60, 72 h
[3] = molecular target: Bromodomain-containing protein 4 (Homo sapiens, UniProt O60885); assay: Inhibition of BRD4 (unknown origin)
Calf thymus DNA = assay: Binding affinity to calf thymus DNA sequence; type: nucleic-acid assay, Bos taurus
HepG2 = assay: Anticancer activity against human HepG2 cells; type: functional, cell-based
Quadruplex DNA [4] = assay: Binding affinity to human MYC G4 DNA sequence; type: nucleic-acid assay
[5] = Growth inhibition of human Burkitts lymphoma cell; type: functional, cell-based
[6] = Binding affinity to MYC bHLH Zip (unknown origin) assessed as dissociation constant by microscale thermophoresis assay; parameters: species or system Homo sapiens
4T1 = assay: Anticancer activity against mouse 4T1 cells; type: functional, cell-based
Homo sapiens [7] = organism: Homo sapiens; assay: Binding affinity to human telomeric repeat F21T assessed as change in melting temperature at 1 uM by high-throughput FRET melting assay
Homo sapiens [8] = organism: Homo sapiens; assay: Binding affinity to c-MYC promoter G4 sequences FmycT (unknown origin) assessed as change in melting temperature at 1 uM by high-throughput FRET melting assay
Homo sapiens [9] = organism: Homo sapiens; assay: Binding affinity to double-stranded DNA FdxT (unknown origin) assessed as change in melting temperature at 1 uM by high-throughput FRET melting assay

SMILES: CCCCOC(=O)CCN1C(=O)S/C(=C\c2ccc(CC)cc2)C1=O
IC50 (HL-60): 5000 nM

SMILES: CCn1cc(C(=O)O)c(=O)c2cc(F)c(N3CCNCC3)cc21 [NORFLOXACIN]
IC50 [3]: 980 nM

SMILES: COC(=O)c1ccc(Nc2ccc([N+](=O)[O-])c3nonc23)c(-c2ccc(C)cc2)c1
IC50 (HL-60): 23000 nM

SMILES: O=[N+]([O-])c1ccc(Nc2ccccc2-c2ccccc2)c2nonc12
IC50 (HL-60): 23000 nM

SMILES: CN(CCc1ccc(Br)cc1)c1ccc2nc3ccc(N(C)CCc4ccc(Br)cc4)cc3[s+]c2c1
Kd (Calf thymus DNA): 11000 nM
IC50 (HepG2): 1000 nM
Kd (Quadruplex DNA [4]): 70 nM

SMILES: CCS(=O)(=O)Nc1ccc(Oc2ccc(F)cc2F)c(-c2cn(C)c(=O)c3[nH]ccc23)c1 [MIVEBRESIB]
IC50 [3]: 3 nM

SMILES: C[n+]1cc(NC(=O)c2ccc3ccc4ccc(C(=O)Nc5cc6ccccc6[n+](C)c5)nc4c3n2)cc2ccccc21
ΔTm (Homo sapiens [7]): 17.3 °C
ΔTm (Homo sapiens [8]): 12 °C
ΔTm (Homo sapiens [9]): 0 °C

SMILES: Oc1ccc(Cl)c2cccnc12 [CLOXYQUIN]
IC50 [3]: 6470 nM

SMILES: CN(C)c1ccc2nc3ccc(N(C)C)cc3[s+]c2c1 [METHYLENE BLUE ANHYDROUS]
Kd (Calf thymus DNA): 200 nM
IC50 (HepG2): 6000 nM
Kd (Quadruplex DNA [4]): 200 nM

More lines, main results first:

Kd (Quadruplex DNA [1]): 2000 nM
SMILES: O=c1oc2c3c4c(cc2cc1-c1nc2ccccc2s1)CCCN4CCC3

IC50 [2]: 120 nM
SMILES: Cc1noc2c1-c1ccccc1C(c1ccc(Cl)cc1)=N[C@H]2CC(N)=O [PELABRESIB]

Kd [6]: 2000 nM
SMILES: CCOc1ccc2nc3cc(/N=N/c4ccc(N)cc4N)ccc3c(N)c2c1
IC50 [5]: 500 nM

Kd (Quadruplex DNA [1]): 1300 nM
IC50 (4T1): 700 nM
SMILES: CN1CCN(c2ccc(-c3nc4cc(F)c(F)cc4nc3-c3ccc(N4CCN(C)CC4)cc3)cc2)CC1

Kd (Quadruplex DNA [1]): 2000 nM
IC50 (4T1): 3900 nM
IC50 (HepG2): 4500 nM
SMILES: CN1CCN(c2ccc(-c3nc(-c4nc5ccccc5s4)[nH]c3-c3ccc(N4CCN(C)CC4)cc3)cc2)CC1

ΔTm (Homo sapiens [7]): 9.2 °C
ΔTm (Homo sapiens [8]): 3.6 °C
ΔTm (Homo sapiens [9]): 9.2 °C
SMILES: c1cc2ccc3ccc4nc3c2nc1CNCCCCCCCNC4
